One data set concerns Male ICR mice. The data set is described as follows: Acute toxicity study, determination of LD50 values. The following applies: for Survival at 2,000 mg/Kg / LD50: male ICR mice; for Survival at 2,000 mg/Kg: i.p., 2,000 mg/Kg, three-day observation; for LD50: single intraperitoneal injection, observed for three days; for Acute symptoms observed: mouse, in vivo, ip. In kind it is in vivo. How it is done: (§1) Leflunomide, its metabolite (A77 1726), and several isoxazole derivatives were chosen for the acute toxicity study. Male ICR mice were used for the intraperitoneal injection of each compound at different doses according to the following procedure: Small male ICR mice are chosen, each weighing 17–23 grams. They are equally classified at random into individual groups, 3–5 mice per group. A predetermined dose of each selected compound in minimum DMSO/liquid paraffin is injected once intraperitoneally to mice in each group. Toxic reaction is observed for three days, then the acute half lethal dose (LD50) is determined.

The subject of data set [1] is C6 (Rat Glialtumor Cell or CCL-107) Cell Line. The data set is described as follows: MTT colorimetric assay for cellular viability on C6 cells. It counts as cell-based. The following applies: 48-h incubation. The procedure: Cell lines (C6 and Hep G2) were obtained from the Bioresource Collection and Research Center. All cell culture media and supplements were purchased from Invitrogen, Co. (GIBCO™, Gland Island, N.Y.) unless otherwise specified. All cells were grown in a humid atmosphere of 95% air and 5% CO2 at 37° C. Cell lines were maintained under standard conditions in culture media recommended by the American Type Culture Collection (ATCC), unless otherwise specified. C6 cells were grown in 82.5% Ham's F-10 medium, 15% horse serum and 2.5% FBS. Hep G2 were cultured in 90% MEM (Eagle) with non-essential amino acids and Earle's BSS amd 10% FBS.
All compounds were tested for inhibition of anchorage-dependent tumor cell growth using MTT assay. All compounds were individually solubilized in DMSO and diluted into appropriate growth medium at 2-fold desired final assay concentration. In assays, cells were seeded into 96-well plates and allowed to adhere for 24 h before drugs were introduced. Following a 48-h incubation, compounds and medium were removed by flicking, and each well was treated with 100 μl of 500 μg/ml MTT [3-(4,5-dimethylthiazol-2-yl)-2,5-diphenyltetrazolium bromide] in culture medium. Following a 4-h incubation period to allow metabolism of MTT by mitochondrial dehydrogenases of viable cells to form an insoluble formazan product, the crystals were dissolved in 100 μL of acid-SDS (0.01 N HCl in 10% SDS) by incubating the plate overnight. Absorbance, as a measure of cell viability, was read the following day in an ELISA plate reader at a wavelength of 550 nm. IC50 values were obtained by a linear regression analysis of percentage absorbance vs. log drug concentration.

Data set [2] in a line: Acute toxicity study, determination of LD50 values. In kind it is in vivo. The following applies: male, ICR, mouse, in vivo, ip. How it is done: as §1
For data set [3], the system named is HT29 (adenocarcinoma of the colon). The data set is described as follows: SRB cell proliferation assay on HT-29 cells. In kind it is cell-based, human. The conditions noted are these: for Cell viability, Reading (avg of 3): HT-29, SRB reading at 515 nm, 5d exposure. The procedure:
The cell lines used were HT29 (adenocarcinoma of the colon). The tumor cells were grown at 37° C. in a humidified atmosphere (5% CO2) as monolayer cultures in RPMI 1640 medium supplemented with 10% FCS. Cells were trypsinized upon passage and maintained routinely.
UTL-5b and UTL-5 were dissolved in DMSO as 4 mM stock solutions and then further diluted in 1% carboxymethyl cellulose.
The SRB assay is routinely employed to measure cell proliferation by the US-NCI 60 cell line screen. Exponentially growing cells were harvested by trypsination, counted and seeded into 96 well plates (2.000 cells/well). […] Total protein mass was determined after 5d of continuous drug exposure by addition of Sulforhodamine B (0.4%) solution. Readings were read at 515 nm, as cell viability, and IC50 values were estimated based on the results.

Here are results for 13 molecules from patent publication US7125902B2, “Methods, compounds, and diagnostics for cancer treatment” (priority 2004, dated 2006).

Structures are written as SMILES.

As a reminder, the LD50 is the dose at which mortality reaches 50%. Low values mean greater toxicity, high ones lower toxicity. What is called IC50 is the point on the concentration scale where inhibition reaches its midpoint. In the case of `Cc1cc(C(=O)Nc2ccc(C(=O)O)cc2)no1` [UTL-5j], in the data set on Male ICR mice, the “Survival at 2,000 mg/Kg” value is recorded as “all mice were alive”, the 50% lethal dose (LD50) was >2,000 mg/Kg and the Acute symptoms observed entry was “agitation”. In data set [1], this molecule showed an IC50 of 0.19 µM.

Take `C/C(O)=C(\C#N)C(=O)Nc1ccc(C(F)(F)F)cc1` [A77 1726, reference compound]: in the data set on Male ICR mice, the median lethal dose (LD50) turned out to be 200 mg/kg; the Acute symptoms observed entry was “Cyanosis and deep necrosis”. For the same molecule, in data set [1], the IC50 was determined as 0.159 µM.

With `Cc1oncc1C(=O)Nc1ccc(C(F)(F)F)cc1` [Leflunomide, N-(4-trifluoromethylphenyl)-4-carboxamidyl-5-methylisoxazole, reference compound], in data set [2], the 50% lethal dose (LD50) at 3 days was determined as 250 mg/kg. In the data set on Male ICR mice, the Acute symptoms observed result was “Cyanosis and deep necrosis”. Moreover, it took 0.162 µM to reach half-maximal inhibition in data set [1] (Rattus norvegicus) (IC50).

`Cc1cc(C(=O)Nc2ccc(F)cc2)no1` [UTL-5k] registered an IC50 in data set [1] greater than 1000 µM.

On to `COc1ccc(NC(=O)c2cc(C)on2)cc1` [UTL-5h], for which, in data set [1], the half-inhibitory concentration (IC50) was 0.35 µM.

`CCOC(=O)CC[C@H](NC(=O)c1ccc(NC(=O)c2cc(C)on2)cc1)C(=O)OCC` [UTL-5l] had an IC50 in data set [1] of 0.16 µM.

Consider `Cc1cc(C(=O)Nc2ccc(Cl)cc2Cl)no1` [UTL-5g], for which, in the data set on Male ICR mice, the “Survival at 2,000 mg/Kg” value is listed as “all mice were alive”, the LD50 is recorded as >2,000 mg/Kg and the Acute symptoms observed entry is reported as “agitation”. For the same molecule, the IC50 in data set [1] was determined as 0.18 µM.

`Cc1cc(C(=O)Nc2ccc(C(F)(F)F)cc2)no1` [UTL-5f] registered an IC50 in data set [1] of 0.17 µM.

In data set [1], `Cc1cc(C(=O)Nc2cccc(Cl)c2)no1` [UTL-5c] yielded a half-maximal inhibitory concentration (IC50) of 0.163 µM.

Consider `Cc1cc(C(=O)Nc2ccccc2)no1` [UTL-5a], for which, in the data set on Male ICR mice, the “Survival at 2,000 mg/Kg” value is on record as “all mice were alive”, the LD50 is listed as >2,000 mg/Kg and the Acute symptoms observed result is “agitation”. The same molecule registered an IC50 in data set [1] of 1.37 µM.

As to `COc1cc(NC(=O)c2cc(C)on2)cc(OC)c1OC` [UTL-5i], in data set [1], the IC50 stood at 1.18 µM.

`Cc1cc(C(=O)Nc2cccc(C(F)(F)F)c2)no1` [UTL-5e]: in data set [1], the IC50 is 0.2 µM.

Take `Cc1cc(C(=O)Nc2ccc(Cl)cc2)no1` [UTL-5d]: the “Activity in human colon cancer cell line HT29 (in words)” value in data set [3] (HT29, SRB assay) was “very good activity”. The “Cell viability, Reading (avg of 3)” value in data set [3] (Conc. 0.001 μM) is reported as 1.238; in data set [3] (Conc. 0.002 μM) it was 1.014; in data set [3] (Conc. 0.01 μM) it was 0.886; in data set [3] (Conc. 0.05 μM), 0.914; in data set [3] (Conc. 0.1 μM) it was 0.864; in data set [3] (Conc. 0.5 μM), 0.893. For the same molecule, the “Cell viability, Reading (avg of 3)” value in data set [3] (Conc. 1 μM) is reported as 0.436; in data set [3] (Conc. 10 μM) it was 0.314; in data set [3] (Conc. 50 μM), 0.164; in data set [3] (Conc. 100 μM), 0.13. Besides, the IC50 in data set [3] (HT-29 cells, SRB assay, 5d continuous exposure, estimated from readings) is 0.7 µM; in data set [1], 0.81 µM. Besides, the LD50 in the data set on Male ICR mice is on record as 1,800 mg/Kg.
